Results reported in US20240400553A1, “AMINE BASED MATRIPTASE 2 INHIBITORS AND USES THEREOF” (Disc Medicine, Inc., priority 2023, published 2024).

Molecular target: T1, Human Recombinant Matriptase 2 (Homo sapiens, UniProt Q8IU80)
T1 construct: made in house
T1 sequence (Q8IU80 1-811): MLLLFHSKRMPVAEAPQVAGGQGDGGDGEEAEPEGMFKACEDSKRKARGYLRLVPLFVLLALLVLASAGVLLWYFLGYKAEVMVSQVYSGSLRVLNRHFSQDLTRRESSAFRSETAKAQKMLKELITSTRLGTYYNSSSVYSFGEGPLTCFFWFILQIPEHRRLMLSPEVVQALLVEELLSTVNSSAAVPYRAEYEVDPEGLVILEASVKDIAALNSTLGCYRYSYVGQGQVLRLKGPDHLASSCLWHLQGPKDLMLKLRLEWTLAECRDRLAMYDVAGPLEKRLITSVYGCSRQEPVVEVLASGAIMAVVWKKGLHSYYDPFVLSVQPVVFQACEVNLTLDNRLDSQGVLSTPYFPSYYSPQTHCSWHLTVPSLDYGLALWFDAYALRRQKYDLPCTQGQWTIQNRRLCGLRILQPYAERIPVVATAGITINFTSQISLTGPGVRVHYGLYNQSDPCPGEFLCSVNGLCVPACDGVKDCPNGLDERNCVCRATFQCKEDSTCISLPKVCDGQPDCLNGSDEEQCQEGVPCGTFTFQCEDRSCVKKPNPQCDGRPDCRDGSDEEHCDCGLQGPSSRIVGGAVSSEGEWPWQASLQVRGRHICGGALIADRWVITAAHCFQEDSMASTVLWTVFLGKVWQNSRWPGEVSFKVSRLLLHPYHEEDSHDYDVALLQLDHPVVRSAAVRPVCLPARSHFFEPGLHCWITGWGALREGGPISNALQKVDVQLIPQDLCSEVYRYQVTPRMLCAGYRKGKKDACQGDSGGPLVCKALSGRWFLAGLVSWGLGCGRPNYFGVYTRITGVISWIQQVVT
Experiment: Matriptase 2 inhibition, fluorescence based assay (Method I)
Type: biochemical
Conditions: Table A; Ki of Matriptase-2 given as class symbols; read-out: Mat-2 Ki
How it was run: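 In-house recombinant enzyme (3.5 nM), preincubated 30 min with compound, then Boc-Gln-Ala-Arg-AMC substrate (62 μM) in 50 mM Tris pH 7.5, 150 mM NaCl, 0.01% gelatin, 1% DMSO, 25 °C. Fluorescence (Ex 360/Em 480 nm) read 60 min after substrate; IC50 from variable-slope sigmoidal fit of % inhibition.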

| Ki [µM] | SMILES |
| --- | --- |
| ≤ 0.1 | COCCN1CCC(CS(=O)(=O)Nc2cc(Cn3c(C(=O)O)cc4ccc(CN)nc43)c3ccccc3c2)CC1 [Compound 211, 6-(aminomethyl)-1-[(3-{[1-(2-methoxyethyl)-piperidin-4-yl]methane-sulfonamido}naphthalen-1-yl)methyl]-1H-pyr-rolo[2,3-b]pyridine-2-carboxylic acid] |
| ≤ 0.1 | Cc1ccccc1CS(=O)(=O)Nc1cc(Cn2c(C(=O)O)cc3ccc(CN)nc32)c2ccccc2c1 [Compound 212, 6-(aminomethyl)-1-({3-[(2-methylphenyl)meth-anesulfonamido]naph-thalen-1-yl}methyl)-1H-pyrrolo[2,3-b]pyridine-2-carboxylic acid] |
| ≤ 0.1 | NCc1ccc2cc(C(N)=O)n(Cc3cc(NS(=O)(=O)CC[C@@H]4CCCN4)cc4ccccc34)c2n1 [Compound 213, 6-(aminomethyl)-1-[(3-{2-[(2S)-pyrrolidin-2-yl]ethanesulfonamido}-naphthalen-1-yl)methyl]-1H-pyrrolo[2,3-b]pyr-idine-2-carboxamide] |
| ≤ 0.1 | NCc1ccc2cc(C(=O)O)n(Cc3cc(NS(=O)(=O)CCN4CCNCC4)cc4ccccc34)c2n1 [Compound 214, 6-(aminomethyl)-1-({3-[2-(piperazin-1-yl)-ethanesulfonamido]-naphthalen-1-yl}meth-yl)-1H-pyrrolo[2,3-b]-pyridine-2-carboxylic acid] |
| 0.1 to 0.5 | CNC(=O)c1cc2ccc(CN)nc2n1Cc1cc(NS(=O)(=O)CC2CCNCC2)cc2ccccc12 [Compound 215, 6-(aminomethyl)-N-methyl-1-({3-[(piperi-din-4-yl)methanesulfon-amido]naphthalen-1-yl}-methyl)-1H-pyrrolo[2,3-b]pyridine-2-carboxamide] |
| 0.1 to 0.5 | NCc1ccc2cc(C(=O)O)n(Cc3cc(NS(=O)(=O)CC4CCNCC4)cc4ccccc34)c2n1 [Compound 216, 6-(aminomethyl)-1-({3-[(piperidin-4-yl)methane-sulfonamido]naphthalen-1-yl}methyl)-1H-pyr-rolo[2,3-b]pyridine-2-carboxylic acid] |
| 0.1 to 0.5 | NCc1ccc2cc(C(=O)O)n(Cc3cc(NS(=O)(=O)CC[C@H]4CCCN4)cc4ccccc34)c2n1 [Compound 217, 6-(aminomethyl)-1-[(3-{2-[(2R)-pyrrolidin-2-yl]ethanesulfonamido}-naphthalen-1-yl)methyl]-1H-pyrrolo[2,3-b]pyr-idine-2-carboxylic acid] |
| 0.1 to 0.5 | N#Cc1cccc(CS(=O)(=O)Nc2cc(Cn3c(C(=O)O)cc4ccc(CN)nc43)c3ccccc3c2)c1 [Compound 218, 6-(aminomethyl)-1-({3-[(3-cyanophenyl)meth-anesulfonamido]naph-thalen-1-yl}methyl)-1H-pyrrolo[2,3-b]pyridine-2-carboxylic acid] |
| 0.1 to 0.5 | CN(C)CCCCS(=O)(=O)Nc1cc(Cn2c(C(=O)O)cc3ccc(CN)nc32)c2ccccc2c1 [Compound 219, 6-(aminomethyl)-1-({3-[4-(dimethylamino)-butanesulfonamido]naph-thalen-1-yl}methyl)-1H-pyrrolo[2,3-b]pyridine-2-carboxylic acid] |
| 0.1 to 0.5 | NCc1ccc2cc(C(=O)O)n(Cc3cc(NS(=O)(=O)Cc4ccoc4)cc4ccccc34)c2n1 [Compound 220, 6-(aminomethyl)-1-({3-[(furan-3-yl)methane-sulfonamido]naphthalen-1-yl}methyl)-1H-pyr-rolo[2,3-b]pyridine-2-carboxylic acid] |
| 0.1 to 0.5 | CN1CCC(COC(=O)c2cc3ccc(CN)nc3n2Cc2cc(NS(=O)(=O)Cc3cccc(C#N)c3)cc3ccccc23)CC1 [Compound 221, (1-methylpiperidin-4-yl)methyl 6-(aminometh-yl)-1-({3-[(3-cyanophen-yl)methanesulfonamido]-naphthalen-1-yl}methyl)-1H-pyrrolo[2,3-b]pyr-idine-2-carboxylate] |
| 0.1 to 0.5 | NCc1ccc2cc(C(=O)O)n(Cc3cc(NS(=O)(=O)Cc4ccccn4)cc4ccccc34)c2n1 [Compound 222, 6-(aminomethyl)-1-({3-[(pyridin-2-yl)methane-sulfonamido]naphthalen-1-yl}methyl)-1H-pyr-rolo[2,3-b]pyridine-2-carboxylic acid] |
| 0.1 to 0.5 | NCc1ccc2cc(C(=O)O)n(Cc3cc(NS(=O)(=O)CCC4CCNCC4)cc4ccccc34)c2n1 [Compound 223, 6-(aminomethyl)-1-({3-[2-(piperidin-4-yl)-ethanesulfonamido]-naphthalen-1-yl}meth-yl)-1H-pyrrolo[2,3-b]-pyridine-2-carboxylic acid] |

The next lines start with the compound.

| SMILES | Ki [µM] |
| --- | --- |
| Cc1cccc(C)c1CS(=O)(=O)Nc1cc(Cn2c(C(=O)OCCN3CCOCC3)cc3ccc(CN)nc32)c2ccccc2c1 [Compound 199, 2-(morpholin-4-yl)ethyl 6-(aminomethyl)-1-({3-[(2,6-dimethylphenyl)-methanesulfonamido]-naphthalen-1-yl}meth-yl)-1H-pyrrolo[2,3-b]-pyridine-2-carboxylate] | 0.1 to 0.5 |
| CNCCOC(=O)c1cc2ccc(CN)nc2n1Cc1cc(NS(=O)(=O)Cc2c(C)cccc2C)cc2ccccc12 [Compound 200, 2-(methylamino)ethyl 6-(aminomethyl)-1-({3-[(2,6-dimethylphenyl)-methanesulfonamido]-naphthalen-1-yl}meth-yl)-1H-pyrrolo[2,3-b]-pyridine-2-carboxylate] | 0.1 to 0.5 |
| Cc1cccc(C)c1CS(=O)(=O)Nc1cc(Cn2c(C(=O)OCCN(C)C)cc3ccc(CN)nc32)c2ccccc2c1 [Compound 201, 2-(dimethylamino)ethyl 6-(aminomethyl)-1-({3-[(2,6-dimethylphenyl)-methanesulfonamido]-naphthalen-1-yl}methyl)-1H-pyrrolo[2,3-b]pyr-idine-2-carboxylate] | 0.1 to 0.5 |
| CCOC(=O)c1cc2ccc(CN)nc2n1Cc1cc(NS(=O)(=O)Cc2c(C)cccc2C)cc2ccccc12 [Compound 202, ethyl 6-(aminomethyl)-1-({3-[(2,6-dimethyl-phenyl)methanesulfon-amido]naphthalen-1-yl}-methyl)-1H-pyrrolo[2,3-b]pyridine-2-carboxylate] | 0.5 to 3 |
| CN1CCC(COC(=O)c2cc3ccc(CN)nc3n2Cc2cc(NS(=O)(=O)Cc3ccccc3O)cc3ccccc23)CC1 [Compound 203] | ≤ 0.1 |
| Cc1ccccc1CS(=O)(=O)Nc1cc(Cn2c(C(=O)OCC3CCN(C)CC3)cc3ccc(CN)nc32)c2ccccc2c1 [Compound 204] | ≤ 0.1 |
| CN1CCC(COC(=O)c2cc3ccc(CN)nc3n2Cc2cc(NS(=O)(=O)Cc3ccccc3F)cc3ccccc23)CC1 [Compound 205, (1-methylpiperidin-4-yl)methyl 6-(aminometh-yl)-1-({3-[(2-fluorophen-yl)methanesulfonamido]-naphthalen-1-yl}methyl)-1H-pyrrolo[2,3-b]pyr-idine-2-carboxylate] | ≤ 0.1 |
| CN1CCC(COC(=O)c2cc3ccc(CN)nc3n2Cc2cc(NS(=O)(=O)Cc3ccc(F)cc3)cc3ccccc23)CC1 [Compound 206, (1-methylpiperidin-4-yl)-methyl 6-(aminomethyl)-1-({3-[(4-fluorophenyl)-methanesulfonamido]-naphthalen-1-yl}meth-yl)-1H-pyrrolo[2,3-b]-pyridine-2-carboxylate] | ≤ 0.1 |
| CN1CCC(COC(=O)c2cc3ccc(CN)nc3n2Cc2cc(NS(=O)(=O)Cc3ccoc3)cc3ccccc23)CC1 [Compound 207, (1-methylpiperidin-4-yl)-methyl 6-(aminomethyl)-1-({3-[(furan-3-yl)meth-anesulfonamido]naph-thalen-1-yl}methyl)-1H-pyrrolo[2,3-b]pyridine-2-carboxylate] | ≤ 0.1 |
| NCc1ccc2cc(C(=O)Nc3nnn[nH]3)n(Cc3cc(NS(=O)(=O)CC[C@@H]4CCCN4)cc4ccccc34)c2n1 [Compound 208, 6-(aminomethyl)-1-[(3-(2-[(2S)-pyrrolidin-2-yl]ethanesulfonamido}-naphthalen-1-yl)methyl]-N-(1H-1,2,3,4-tetrazol-5-yl)-1H-pyrrolo[2,3-b]-pyridine-2-carboxamide] | ≤ 0.1 |
| CN1CCC(COC(=O)c2cc3ccc(CN)nc3n2Cc2cc(NS(=O)(=O)Cc3ccccc3C(F)(F)F)cc3ccccc23)CC1 [Compound 209, (1-methylpiperidin-4-yl)-methyl 6-(aminomethyl)-1-[(3-{[2-(trifluorometh-yl)phenyl]methanesul-fonamido}naphthalen-1-yl)methyl]-1H-pyrrolo-[2,3-b]pyridine-2-car-boxylate] | ≤ 0.1 |
| CN1CCC(COC(=O)c2cc3ccc(CN)nc3n2Cc2cc(NS(=O)(=O)Cc3cnsc3)cc3ccccc23)CC1 [Compound 210, (1-methylpiperidin-4-yl)-methyl 6-(aminomethyl)-1-({3-[(1,2-thiazol-4-yl)-methanesulfonamido]-naphthalen-1-yl}methyl)-1H-pyrrolo[2,3-b]pyr-idine-2-carboxylate] | ≤ 0.1 |
